# Values of other authors as cited in patent US20260373185A1, “METHODS FOR SEQUENTIALLY ADMINISTERING TAS-102 AND BCL-2 INHIBITOR FOR CANCER TREATMENT” (Health Research, Inc., priority 2023, published 2026).
# pKi: −log10 of the molar value.
# How the values were obtained:
# [1] = target: BCL-w; conditions: cell-free assays
# [2] = system: A1; conditions: relative to BCL-xL, BCL-2 and BCL-w
# [3] = system: MCL-1
# [4] = system: p53-deficient cancers; conditions: current DNA-damaging drugs
smiles,measurement,setting,value
CC1(C)CCC(c2ccc(Cl)cc2)=C(CN2CCN(c3ccc(C(=O)NS(=O)(=O)c4ccc(N[C@H](CCN5CCOCC5)CSc5ccccc5)c(S(=O)(=O)C(F)(F)F)c4)cc3)CC2)C1 [Navitoclax],pKi,[1],≥ 9.00
same,binding to A1,[2],binds more weakly
same,binding to Mcl-1,"[3]; relative to BCL-xL, BCL-2 and BCL-w",binds more weakly
CC1(C)CCC(CN2CCN(c3ccc(C(=O)NS(=O)(=O)c4ccc(NCC5CCOCC5)c([N+](=O)[O-])c4)c(Oc4cnc5[nH]ccc5c4)c3)CC2)=C(c2ccc(Cl)cc2)C1 [Venetoclax],activity to MCL-1,[3]; cell-free assays,no activity
N.N.[Cl][Pt][Cl] [cisplatin],toxicity by p53 status,[4],toxicity regardless of p53 status
Nc1ccn([C@@H]2O[C@H](CO)[C@@H](O)C2(F)F)c(=O)n1 [gemcitabine],toxicity by p53 status,[4],toxicity regardless of p53 status
